Tests used:
DUB = assay: Experiment 3: DUB reporter Z-LRGG-AMC with control, 5011 and DMC-2 treated lysates; format: biochemical
Method: Peptide used was the commercial DUB reporter [Z-LRGG-AMC (SEQ ID NO: 1)] at multiple concentrations [50-150 uM]. 1100 uL protein at 6 mg/mL for each set was given. Final protein concentration in micro-wells was 4 mg/mL. Peptide was incubated with control, 5011 treated, 1 ug/mL DMC-2, 10 ug/mL DMC-2, and 30 ug/mL DMC-2 in DUB assay buffer. Fluorometric readings were taken at different time points in plate reader. Measured at [Em 460/Ex 355]. Fluorescent signals were converted to μM/min using a calibration curve for the AMC fluorophore. Rates were plotted vs. substrate concentration (Z-LRGG-AMC peptide (SEQ ID NO: 1)) (FIG. 10). […] The curves are not perfect logarithmic curves but we can observe the trend. The results with different concentrations of DMC-2 were further plotted. When compared with control: the 5011 treatment enhances DUB activity, DMC-2 being the active part of 5011, also enhances the DUB activity. From FIG. 11, the lowest concentration of DMC2-1 μg/mL has most effect on DUB activity when compared to 30 μg/mL. Without wishing to be bound by theory, some data fluctuation with DMC-2 can occur in the 1 μg/mL range.

[1] = system: deubiquitinating enzymes (DUBs); assay: DUB activity (Z-LRGG-AMC cleavage) in lysates of treated MM.1S cells; format: cell-based; conditions: for Vmax / effect on DUB activity vs DMSO control / Km / n (Hill coefficient): 16 h
Method: (§1) OPM2 cells were maintained in RPMI 1640 media supplemented with 12% FBS, 21.8 mM glucose, 8.6 mM HEPES (pH 7.4) and 1.0 mM sodium pyruvate. MM.1S cell line were maintained in RPMI 1640 media supplemented with 10% FBS. The cells were all cultured in T175 flasks (VWR, Radnor, Pa.). All media components were from Corning, Atlanta, Ga. unless otherwise noted. To test the effect of the ethanolic extract and bioactive compounds on DUB activity, cells were exposed to a 16-h pretreatment with 10 μg/mL of PMI-5011 and 1, 10, 30 μg/mL concentrations of DMC-1, DMC-2, KOE, and davidigenin before lysing the cells for experimentation. All compounds were reconstituted in DMSO to obtain stock concentrations, which was further diluted in culture media to obtain the desired experimental concentrations. For vehicle control, a subpopulation of cells was treated with pure DMSO diluted in a similar manner for the same duration. Upon treatment, cell lysates (both OPM2 and MM.1S) were generated by harvesting 1×10^6 cells/mL, followed by washing 2× and pelleting in phosphate buffered saline (PBS; 137 mM NaCl, 10 mM Na2HPO4, […], and 1.75 mM KH2PO4 at pH 7.4). The cell pellet was re-suspended in an approximately equivalent volume of M-PER to the volume of the cell pellet (1000-2000 μL) then vortexed for 10 min at room temperature. Following this, the mixture was centrifuged at 14,000×g for 15 min at 4° C. and the supernatant transferred to a centrifuge tube and stored on ice until use. Total protein concentration was determined using a NanoDrop 2000c (Thermo Scientific, Madison, Wis.).
(§2) The commercial DUB reporter, Z-LRGG-AMC (substrate) (SEQ ID NO: 1) was reconstituted in DMSO to obtain a final stock concentration of 1.44 mM. This stock reporter was diluted as needed in assay buffer (50 mM HEPES, pH 7.4, 150 mM NaCl, 2 mM DTT, and 0.02% Tween-20) supplemented with 4 mg/mL cell lysates (source of DUBs) to reach the desired reporter concentration with a final volume of 100 μL in a 96-well plate. OPM2 and MM.1S cell lysates from different treatments (10 μg/mL of PMI-5011; 1, 10, and 30 μg/mL of DMC-1, DMC-2, KOE, davidigenin and control vehicle DMSO) and C2C12 cell lysates were used to interrogate the effect of the ethanolic extract and selected bioactive compounds on DUB activity. Reporter only and lysates only (noise/background) samples were included in the 96-well plate to confirm that the rates observed were due to DUB-mediated hydrolysis initiated by the cell lysates. The 96-well plate was maintained at a temperature of 30° C. in the dark for the duration of the experiment. The fluorescence signals emitted as a result of DUB-mediated cleavage of AMC (λex=355 nm and λem=460 nm) were quantified using a Wallac 1420 VICTOR2 multilabel HTS counter fluorometry (Perkin Elmer (Waltham, Mass.). Readings were collected every 30 min for 6 h. The normalized signals were obtained by comparing the treatment with noise and background fluorescence values which were then statistically analyzed for their significance. Each data point represents triplicate data points from duplicate experiments. A calibration curve was generated for known concentrations of AMC to correlate the fluorescence signal (AU) to concentration (μM). The approximate concentration of free fluorophore was used to calculate reaction rates (μM/min) for each substrate concentration using linear regression analysis.
(§3) All data visualization, interpretation and curve-fittings were performed using Origin Pro (OriginLab, Northampton, MA) while statistical analyses of experimental data were carried out using SAS 9.4 (SAS Solutions). The analyses of enzyme-substrate reactions in all cell lysates started with scatter plotting the fluorometry signals (p,M) measured for each substrate concentration against time (min). Fluorescence signals measured for each substrate concentration remained stable during the first 30 min, indicating there was a 30-minute lag period before reaction initiation. […]

[2] = system: deubiquitinating enzymes (DUBs); assay: DUB activity (Z-LRGG-AMC cleavage) in lysates of treated OPM2 cells; format: cell-based; conditions: for Vmax / effect on DUB activity vs DMSO control / Km / n (Hill coefficient): 16 h
Method: as §1, §2, §3

COc1ccc(CCC(=O)c2ccc(O)cc2O)cc1 [DMC-2, 1-(2,4-dihydroxyphenyl)-3-(4-methoxyphenyl)propan-1-one]
concentration with most effect on DUB activity (DUB; compared to 30 μg/mL): 1 µg/mL | effect on DUB activity vs control (DUB; treated lysates 4 mg/mL, DMC-2 at 1, 10, 30 ug/mL): enhances | Vmax ([1]; 1 μg/mL): 22.70 ± 1.71 µM/min | effect on DUB activity vs DMSO control ([1]; 1 μg/mL): significantly enhanced | Vmax ([1]; 10 μg/mL): 18.13 ± 0.14 µM/min | effect on DUB activity vs DMSO control ([1]; 10 μg/mL): significantly enhanced | Vmax ([1]; 30 μg/mL): 18.12 ± 7.21 µM/min | effect on DUB activity vs DMSO control ([1]; 30 μg/mL): significantly enhanced | effect of increasing concentration on DUB activity (normalized Vmax) ([1]; 1, 10, 30 μg/mL, regression fit): negative linear effect | Km ([1]; Table 2, 1 μg/mL): 44.8 µM | Vmax ([1]; Table 2, 1 μg/mL): 0.0227 µM/min | n (Hill coefficient) ([1]; Table 2, 1 μg/mL): ~1.00 | Km ([1]; Table 2, 10 μg/mL): 39.4 µM | Vmax ([1]; Table 2, 10 μg/mL): 0.0181 µM/min | n (Hill coefficient) ([1]; Table 2, 10 μg/mL): 1.68 | Km ([1]; Table 2, 30 μg/mL): 42.2 µM | Vmax ([1]; Table 2, 30 μg/mL): 0.0181 µM/min | n (Hill coefficient) ([1]; Table 2, 30 μg/mL): 1.06 | Vmax ([2]; OPM2, 1 μg/mL): 21.38 ± 2.68 µM/min | effect on DUB activity vs DMSO control ([2]; OPM2, 1 μg/mL): significantly enhanced | Vmax ([2]; OPM2, 10 μg/mL): 22.71 ± 1.64 µM/min | effect on DUB activity vs DMSO control ([2]; OPM2, 10 μg/mL): significantly enhanced | Vmax ([2]; OPM2, 30 μg/mL): 184.79 ± 22.09 µM/min | effect on DUB activity vs DMSO control ([2]; OPM2, 30 μg/mL): significantly enhanced | effect of increasing concentration on DUB activity (normalized Vmax) ([2]; OPM2, 1, 10, 30 μg/mL, regression fit): exponential increase | Km ([2]; Table 2, OPM-2, 1 μg/mL): 44.8 µM | n (Hill coefficient) ([2]; Table 2, OPM-2, 1 μg/mL): 1.47 | Vmax ([2]; Table 2, OPM-2, 1 μg/mL, in µM/min): 21.38 | Km ([2]; Table 2, OPM-2, 10 μg/mL): 35.5 µM | n (Hill coefficient) ([2]; Table 2, OPM-2, 10 μg/mL): 1.59 | Vmax ([2]; Table 2, OPM-2, 10 μg/mL, in µM/min): 22.71 | Km ([2]; Table 2, OPM-2, 30 μg/mL): 48.2 µM | n (Hill coefficient) ([2]; Table 2, OPM-2, 30 μg/mL): 1.49 | Vmax ([2]; Table 2, OPM-2, 30 μg/mL, in µM/min): 184.79
